Experimental data: patent publication US7291617B2, “Arylamidine derivative or salt thereof” (Toyama Chemical Co., Ltd., priority 2003, dated 2007)
Where a name gives a salt, the structure may show the parent alone. Read-outs that look alike come from different tables or passages of the source.

Key:
[1] = system: Candida albicans TIMM 1623; assay: Antifungal action, microbroth dilution growth inhibition; format: cell-based; conditions: read-out: IC50 (50% growth inhibitory concentration)
Procedure: 50% growth inhibitory concentration (IC50) was measured according to the microbroth dilution method, using, as a reference, the antifungal agent sensitivity test method proposed by the subcommittee for the antifungal agent sensitivity test, the Japanese Society for Medical Mycology (Japanese Journal of Medical Mycology, vol. 36, No. 1, pp. 62 to 64, 1995). Synthetic amino acid medium, fungal (SAAMF, manufactured by Nippon Bio-Supp. Center) was used as a medium for measurement of sensitivity. Candida albicans TIMM 1623 was cultured at 30° C. overnight on a Sabouraud agar plate medium (Eiken Chemical Co., Ltd.), and the obtained culture was suspended in a sterilized physiological saline solution. Thereafter, the suspension was diluted with a measurement medium such that the number of cells became 1×10^4 cells/ml, thereby producing an inoculum organism solution. 175 μl of a medium, 5 μl of a test agent (an agent diluted solvent in a growth control well), and 20 μl of the inoculum organism solution were added to a 96-well microplate (flat bottom, manufactured by Sumitomo Bakelite Co., Ltd.), and the mixture was stirred with a mixer. Thereafter, using a well Reader SME3400 (Scinics Co., Ltd.), an initial turbidity at a wavelength of 630 nm was measured. The above mixture was cultured at 35° C., and 36 hours later, a final turbidity was measure in the same manner. For an agent-diluted line, values were obtained by subtracting the initial turbidities from the final turbidities. For a growth control line also, values were obtained by subtracting the initial turbidities from the final turbidities. IC50 was defined as the lowest agent concentration among the test agent concentrations having a turbidity equal to or lower than the 50% value (IC50 calculated value) of a value obtained by subtracting the initial turbidity of a growth control from the final turbidity thereof.

[2] = system: Candida albicans TIMM 1623; assay: Therapeutic effect on mouse systemic Candida albicans infection, single subcutaneous dose, T/C survival; format: in vivo, ICR male mice; conditions: 0.1 mg/kg, administered once into the dorsal subcutis 2 hours after infection; observed until the 14th day
Procedure: Candida albicans TIMM 1623 was cultured at 30° C. overnight on a Sabouraud agar plate medium (Eiken Chemical Co., Ltd.), and the obtained culture was suspened in a sterilized physiological saline solution. Thus, a fungal solution for infection, having a concentration of 1×10^7 cells/ml, was prepared. This fungal solution was inoculated in a concentration of 0.2 ml (2×10^6 CFU/mouse) into the tail vein of each of five ICR male mice (4-week-old, body weight of 20±1 g). 2 hours later, 0.2 ml of a solution, which had been prepared by dissolving a test compound into a sterilized physiological saline solution and setting the concentration at 0.01 mg/ml, was administered once into the dorsal subcutis of each mouse. To mice of a control group, an equal amount of a sterilized physiological saline solution was administered.
Viability of the mice was observed until the 14th day after the infection, and the cumulative survival rate (T/C) of the treatment group to the control group was calculated, and the obtained value was used as an index of the life-prolonging effect.

[3] = system: Candida albicans TIMM 1623; assay: Therapeutic effect on mouse systemic Candida albicans infection, 7 subcutaneous doses, survival to day 28; format: in vivo, ICR male mice; conditions: 0.2 ml of 0.01 mg/ml solution subcutaneously once a day, 7 times in total; five mice per group; control group all died
Procedure: Candida albicans TIMM 1623 was cultured at 30° C. overnight on a Sabouraud agar plate medium (Eiken Chemical Co., Ltd.), and the cultured fumgus was suspended in a sterilized physiological saline solution. Thus, a fungal solution for infection, having a concentration of approximately 10^7 cells/ml, was prepared. 0.2 ml of this fungal solution was inoculated into the tail vein of each of five ICR male mice (4-week-old, body weight of 20±1 g). 2 hours after the infection, 0.2 ml of a solution, which had been prepared by dissolving a test compound into a sterilized physiological saline solution and adjusting the concentration at 0.01 mg/ml, was administered once into the dorsal subcutis of each mouse. From the following day, the same solution was administered thereto once a day for 6 days. Thus, the above solution was administered into the dorsal subcutis of the mice 7 times in total. To mice of a control group, an equal amount of a sterilized physiological saline solution was administered. Viability of the mice was observed until the 28th day after the infection.

[4] = Candida albicans, TIMM1623, 36 h
[5] = TIMM1623, Candida albicans TIMM 1623, SAAMF medium, 35° C., 36 hours, turbidity at 630 nm

| Structure (SMILES) | IC50 [1, 4] | other results |
| --- | --- | --- |
| CNCCCOc1ccc(C(=N)N)cc1 [Example 2, 4-[3-(methylamino)propoxy]benzamidine Hydrochloride] | 2 µg/mL | – |
| N=C(N)c1ccc(OCCCNCCCCCC(=O)O)cc1 [Example 3-2, 6-[(3-{4-[amino(imino)methyl]phenoxy}propyl)amino]hexanoic Acid Hydrochloride] | 0.5 µg/mL | – |
| N=C(N)c1ccc(OCCCCN)cc1 [Example 5, 4-(4-aminobutoxy)benzamidine hydrochloride] | 0.25 µg/mL | – |
| N=C(N)c1ccc(OCCCCCN)cc1 [Example 7, 4-[(5-aminopentyl)oxy]benzamidine Hydrochloride] | 0.5 µg/mL | – |
| N=C(N)c1ccc(OCCCN)cc1 [Example 9-2, 4-(3-aminopropoxy)benzamidine Hydrochloride] | 0.5 µg/mL | – |
| N=C(N)c1ccc(OCCCNCCN)cc1 [Example 10, 4-{3-[(2-aminoethyl)amino]propoxy}benzamidine hydrochloride] | 1 µg/mL | – |
| N=C(N)c1ccc(OCCCN2CCN(CCCOc3ccc(C(=N)N)cc3)C(=O)C2=O)cc1 [Example 19, 4-{3-[4-(3-{4-[amino(imino)methyl]phenoxy}propyl)-2,3-dioxo-1-piperazinyl]propoxy}benzamidine acetate] | – | IC50 [1, 5]: 0.125 µg/mL |
| N=C(N)c1ccc(OCCN2CCN(CCOc3ccc(C(=N)N)cc3)C(=O)C2=O)cc1 [Example 20, 4-{2-[4-(2-{4-[amino(imino)methyl]phenoxy}ethyl)-2,3-dioxo-1-piperazinyl]ethoxy}benzamidine Acetate] | – | IC50 [1, 5]: 0.125 µg/mL |
| N=C(N)c1ccc(OCCCCN2CCN(CCCCOc3ccc(C(=N)N)cc3)C(=O)C2=O)cc1 [Example 21, 4-{4-[4-(4-{4-[amino(imino)methyl]phenoxy}butyl)-2,3-dioxo-1-piperazinyl]butoxy}benzamidine Acetate] | – | IC50 [1, 5]: 0.25 µg/mL |
| N=C(N)c1ccc(OCCCN2CCN(CCOc3ccc(C(=N)N)cc3)C(=O)C2=O)cc1 [Example 22, 4-{3-[4-(2-{4-[amino(imino)methyl]phenoxy}ethyl)-2,3-dioxo-1-piperazinyl]propoxy}benzamidine Acetate] | – | IC50 [1, 5]: 2 µg/mL |
| N=C(N)c1ccc(OC/C=C/CN2CCN(CCCOc3ccc(C(=N)N)cc3)C(=O)C2=O)cc1 [Example 23, 4-({(E)-4-[4-(3-{4-[amino(imino)methyl]phenoxy}propyl)-2,3-dioxo-1-piperazinyl]-2-butenyl}oxy)benzamidine Acetate] | – | IC50 [1, 5]: 2 µg/mL |
| N=C(N)c1ccc(OCCCNCCNCCCOc2ccc(C(=N)N)cc2)cc1 [Example 24, 4-[3-({2-[(3-{4-[amino(imino)methyl]phenoxy}propyl)amino]ethyl}amino)propoxy]benzamidine hydrochloride] | 0.0078 µg/mL | cumulative survival rate (T/C) of the treatment group to the control group [2]: 180; survival ratio on the 28th day after the infection [3]: 3/5 |
| N=C(N)c1ccc(OCCNCCNCCOc2ccc(C(=N)N)cc2)cc1 [Example 25, 4-[2-({2-[(2-{4-[amino(imino)methyl]phenoxy}ethyl)amino]ethyl}amino)ethoxy]benzamidine Hydrochloride] | 0.0156 µg/mL | – |
| N=C(N)c1ccc(OCCCCNCCNCCCCOc2ccc(C(=N)N)cc2)cc1 [Example 26, 4-[4-({2-[(4-{4-[amino(imino)methyl]phenoxy}butyl)amino]ethyl}amino)butoxy]benzamidine Hydrochloride] | 0.0625 µg/mL | – |
| N=C(N)c1ccc(OCCCNCCNCCOc2ccc(C(=N)N)cc2)cc1 [Example 27, 4-[3-({2-[(2-{4-[amino(imino)methyl]phenoxy}ethyl)amino]ethyl}amino)propoxy]benzamidine Hydrochloride] | 0.0313 µg/mL | – |
| N=C(N)c1ccc(OCCCNCCCOc2ccc(C(=N)N)cc2)cc1 [Example 32, 4-{3-[(3-{4-[amino(imino)methyl]phenoxy}propyl)amino]propoxy}benzamidine Hydrochloride] | 0.0313 µg/mL | – |
| N=C(N)c1ccc(OCCCN2CCN(CCCOc3ccc(C(=N)N)cc3)CC2)cc1 [Example 40-2, 4-{3-[4-(3-{4-[amino(imino)methyl]phenoxy}propyl)-1-piperazinyl]propoxy}benzamidine hydrochloride] | 0.0039 µg/mL | survival ratio on the 28th day after the infection [3]: 4/5 |
| N=C(N)c1ccc(OCCCN2CCN(CCCOc3ccc(C(=N)N)c(F)c3)CC2)cc1F [Example 42, 4-{3-[4-(3-{4-[amino(imino)methyl]-3-fluorophenoxy}propyl)-1-piperazinyl]propoxy}-2-fluorobenzamidine Hydrochloride] | 0.0156 µg/mL | – |
| N=C(N)c1ccc(OCCCN2CCN(CCCOc3ccc(C(=N)N)cc3F)CC2)c(F)c1 [Example 43, 4-{3-[4-(3-{4-[amino(imino)methyl]-2-fluorophenoxy}propyl)-1-piperazinyl]propoxy}-3-fluorobenzamidine Hydrochloride] | 0.0313 µg/mL | – |
| N=C(N)c1ccc(OCCCN2CCCN(CCCOc3ccc(C(=N)N)cc3)CC2)cc1 [Example 55, 4-{3-[4-(3-{4-[amino(imino)methyl]phenoxy}propyl)-1,4-diazepan-1-yl]propoxy}benzamidine Hydrochloride] | 0.0156 µg/mL | – |
| N=C(N)c1ccc(OCCCN2CCC(CCOc3ccc(C(=N)N)cc3)CC2)cc1 [Example 56, 4-{2-[1-(3-{4-[amino(imino)methyl]phenoxy}propyl)-4-piperidinyl]ethoxy}benzamidine Hydrochloride] | 0.0039 µg/mL | survival ratio on the 28th day after the infection [3]: 4/5 |
| N=C(N)c1ccc(OCCCNC2CCN(CCCOc3ccc(C(=N)N)cc3)C2)cc1 (stereo not shown) [Example 57, 4-(3-{3-[(3-{4-[amino (imino)methyl]phenoxy}propyl)amino]-1-pyrrolidinyl}propoxy)benzamidine Hydrochloride] | 0.0313 µg/mL | – |
| N=C(N)c1ccc(OCCCNC2CCN(CCCOc3ccc(C(=N)N)cc3)CC2)cc1 [Example 58, 4-(3-{[1-(3-{4-[amino(imino)methyl]phenoxy}propyl)-4-piperidinyl]amino}propoxy)benzamidine Hydrochloride] | 0.0313 µg/mL | – |
| N=C(N)c1ccc(OCCCNCCNCCCOc2cccc(C(=N)N)c2)cc1 [Example 74, 3-[3-({2-[(3-{4-[amino(imino)methyl]phenoxy}propyl)amino]ethyl}amino)propoxy]benzamidine Hydrochloride] | 0.125 µg/mL | – |
